Where a name gives a salt, the structure may show the parent alone.
Test system: patients suffering from Chronic non-cancer pain (CNCP)
Experiment: Human clinical trial, pain scored by visual analogue scale (VAS)
Type: in vivo
Details: mean ± SD, scale 0-100 mm
Description: The present inventions disclosed in this specification further include a method of treating pain and pain related conditions. This was established using a well controlled human clinical trial. The method of treating pain and pain related conditions by using a combination disclosed by this invention has been established in a long-term controlled clinical evaluation. A typical study determined the efficacy of tramadol and meloxicam as monotherapy and a combination of meloxicam and a slow release tramadol for the treatment of pain and pain related conditions
• Tramadol hydrochloride: Generic Tramadol Hydrochloride tablets 50 mg, • Meloxicam: Generic Meloxicam tablets 7.5 mg • Slow Release Tramadol Hydrochloride: a) Example 1, b) Ultram ER 100 mg
The administered dosage comprised either tramadol hydrochloride (100 mg) or meloxicam 7.5 mg or a combination of meloxicam (7.5 mg) and slow release tramadol hydrochloride (100 mg) selected from Treatments D or E or a combination of meloxicam 5 mg and a slow release tramadol 100 mg (Treatment F) was administered once a day to the patients in a long-term clinical trial.
140 patients were used in a clinical trial were suffering from Chronic non-cancer pain (CNCP), defined as pain for longer than 6 months, including neuropathic pain, osteoarthritis, rheumatoid arthritis, fibromyalgia, and back and musculoskeletal pain were included in the clinical trial.
Those patients with migraines, dental pain, abdominal pains (from chronic pancreatitis, kidney stones, etc.) and ischemic pain from vascular disease were excluded because they are usually not classified as CNCP. Patients with history of addiction (alcohol or drugs) were excluded from the trials
Randomization was performed with computer-generated random numbers in blocks of 10. Randomization codes of the monotherapy or combination therapy treatments were placed in sequentially numbered, opaque, sealed envelopes in the biopsy center. When a patient was recruited and consented, the next numbered envelope was opened by the operator, who had no knowledge of the randomization code before the treatment
Pain was assessed using a visual analogue scale (VAS) graded from 0-100 mm. Pain scoring was performed every three hours after drug administration for a total of 24 hours.
The patients were taught with a standard method by the physician how to use a VAS scoring from 0 to 100 mm to grade the intensity of pain experienced during the treatment. On that scale, the left endpoint, 0, was defined as no pain and the right endpoint 100, as the worst pain the patient could imagine. There were no further marks on the line. The intensity of pain was indicated by the distance in millimeters from the left end. Patients were asked to grade the pain intensity immediately after the administration of drugs and every three hour after for 24 hours by drawing a vertical line over each VAS line. The doctors who prescribed the medicines obtained all the VAS forms for that specific patient.
Data are expressed as means ±SD. Differences in VAS were analyzed with use of the unpaired Student t test and differences in pain score reductions between the two groups were analyzed with use of the Mann-Whitney U test for the median difference. Similar statistical tests were used for between group comparisons of other outcome variables as appropriate. A two tailed P value of less than. […] SAS software was used for the statistical analysis.
We considered that a clinically significant benefit of using meloxicam and slow release tramadol would be a reduction in the pain score (VAS) of at least 15% compared to the monotherapy with either tramadol hydrochloride or naproxen or meloxicam or placebo. Alternatively, the dose reduction of at least 15% of either NSAID or tramadol when used as combination over the monotherapy as significant benefit

COc1cccc([C@@]2(O)CCCC[C@@H]2CN(C)C)c1 (racemic) [Treatment A, (±) cis-2-[(dimethylamino)methyl]-1-(3-methoxyphenyl)cyclo-hexanol hydrochloride]
Pain scored by VAS (VAS time 0 hours): 30.3 ± 21.2 mm | Pain scored by VAS (VAS time 3 hours): 22.3 ± 20.1 mm | Pain scored by VAS (VAS time 6 hours): 18.3 ± 20.6 mm | Pain scored by VAS (VAS time 9 hours): 15.3 ± 17.2 mm | Pain scored by VAS (VAS time 12 hours): 12.3 ± 21.2 mm | Pain scored by VAS (VAS time 15 hours): 14.3 ± 19.2 mm | Pain scored by VAS (VAS time 18 hours): 15.3 ± 21.3 mm | Pain scored by VAS (VAS time 21 hours): 14.3 ± 19.2 mm | Pain scored by VAS (VAS time 24 hours): 14.3 ± 19.2 mm

Cc1cnc(N/C(O)=C2/C(=O)c3ccccc3S(=O)(=O)N2C)s1 [Treatment B, 4-hydroxy-2-methyl-N-(5-methyl-2-thiazolyl)-2H-1,2-benzothiazine-3-carboxamide-1,1-dioxide]
Pain scored by VAS (VAS time 0 hours): 34 ± 19.1 mm | Pain scored by VAS (VAS time 3 hours): 18 ± 19.1 mm | Pain scored by VAS (VAS time 6 hours): 14 ± 21.1 mm | Pain scored by VAS (VAS time 9 hours): 14 ± 20.3 mm | Pain scored by VAS (VAS time 12 hours): 15 ± 18.6 mm | Pain scored by VAS (VAS time 15 hours): 17 ± 21.5 mm | Pain scored by VAS (VAS time 18 hours): 19 ± 19.7 mm | Pain scored by VAS (VAS time 21 hours): 20 ± 18.3 mm | Pain scored by VAS (VAS time 24 hours): 25 ± 20.9 mm

Source: US20080026054A1, “Novel anelgesic combination” (NECTID INC., priority 2007, published 2008)
